Assays:
[1] = system: LC3-II; assay: Autophagy induction assay (LC3-II/LC3-I ratio by western blot); format: cell-based, human; settings: SH-SY5Y cells; for LC3-II expression: treatment with astersaponin I
Experimental: Protein markers contained in lysates of the SH-SY5Y cells and brain tissue of the mice (SNpc and ST) were measured by western blot analysis. Briefly, after determining a concentration, a protein sample (20 μg) was separated by 8%, 10%, or 15% sodium dodecyl sulfate-polyacrylamide gel electrophoresis (SDS-PAGE). Then, proteins separated on the gel were transferred to a polyvinylidene fluoride (PVDF) membrane for 45 minutes using a Trans-Blot Turbo Transfer System (Bio-Rad, USA). The membrane was washed with tris-buffered saline with 0.1% Tween 20, TBST) for 5 minutes and then blocked by 5% skim milk dissolved in a TBST buffer. The membrane was further incubated with monoclonal primary antibodies derived from rabbits (anti-GAPDH, anti-AMPK, anti-p-AMPK, anti-ULK, anti-p-ULK555, anti-Erk, anti-p-Erk, anti-mTOR, anti-p-mTOR, anti-LC3B, anti-TH, and anti-α-synuclein antibodies). The primary antibodies were diluted in a blocking buffer at a ratio of 1:1000 and incubated overnight at 4° C. On the second day, the membrane was washed with TBST three times (10 minutes each) and incubated at room temperature in a horseradish peroxidase-conjugated goat anti-rabbit IgG secondary antibody (diluted in a blocking buffer at a ratio of 1:2000). After incubating in the secondary antibody for 1 hour, the membrane was washed for 30 minutes. The protein blots on the membrane were developed using an ECL detection kit and visualized using an LAS-4000 mini system (Fujifilm, Japan). The intensity of the protein blots was quantified using Multi Gauge software (Fujifilm, Japan).
To investigate the autophagy inducing effect of A. koraiensis, human neuroblastoma (SH-SY5Y) cells were cultivated in 6-well plates at a density of 8×10^5 cells/well in 2 mL DMEM medium (Gibco) at 37° C. in a humidified atmosphere with 5% CO2. […] The protein expression of LC3-II in cell lysates was measured using western blot analysis. […] The immune blots were visualized using an ECL detection kit and analyzed using a LAS-4000 mini system (Fujifilm).

[2] = target: T1, MAO-B (Mus musculus, UniProt Q8BW75); assay: Determination of MAO-B activity of ST and SN; format: in vivo, mice (C57BL/6j); settings: both ST and SN; MPTP 30 mg/kg mice; 5 mg/kg and 15 mg/kg p.o.
T1 construct: a MAO-B substrate was added to a MAO-B enzyme-containing substance (ST and SN samples); from tissue; host or cells: mouse brain: striatum (ST) and substantia nigra (SN/SNpc) homogenate supernatant
T1 sequence (Q8BW75 1-520): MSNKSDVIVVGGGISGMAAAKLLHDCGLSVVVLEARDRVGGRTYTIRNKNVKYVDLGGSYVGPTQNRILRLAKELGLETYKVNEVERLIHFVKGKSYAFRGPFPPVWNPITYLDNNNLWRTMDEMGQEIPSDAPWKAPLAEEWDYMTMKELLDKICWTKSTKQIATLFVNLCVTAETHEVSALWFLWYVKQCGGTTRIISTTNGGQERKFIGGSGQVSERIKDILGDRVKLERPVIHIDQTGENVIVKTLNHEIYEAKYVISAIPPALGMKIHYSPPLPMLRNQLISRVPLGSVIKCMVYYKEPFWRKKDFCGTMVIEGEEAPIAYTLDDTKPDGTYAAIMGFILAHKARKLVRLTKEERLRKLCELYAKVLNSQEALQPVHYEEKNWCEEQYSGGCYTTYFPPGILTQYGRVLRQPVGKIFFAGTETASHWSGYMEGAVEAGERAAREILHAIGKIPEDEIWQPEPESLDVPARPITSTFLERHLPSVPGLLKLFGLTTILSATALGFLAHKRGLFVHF
Experimental: 40 mice were classified into five groups such that eight mice belonged to each group. After the habituation period, all mice were orally administered with a drug every day. While the mice of Groups 1 and 2 were administered with saline (p.o.), the mice of Groups 3, 4, and 5 were administered with 5 mg/kg ropinirole (p.o.), 5 mg/kg AKNS-2 (p.o.), and 15 mg/kg AKNS-2 (p.o.), respectively. From the 5th day therefrom, the mice of Group 1 were intraperitoneally administered with a saline at 1 hour after gavage feeding of saline, and the mice of Groups 2, 3, 4, and 5 were administered with 30 mg/kg MPTP (i.p.) at 1 hour after gavage feeding of saline, ropinirole, AKNS-2 (5 mg/kg), and AKNS-2 (15 mg/kg), respectively. […]
On the 7th day after the last administration of MPTP, SNpc and ST of each mouse were carefully excised and stored at −80° C. until use. […] A concentration of proteins contained in the supernatant was measured by the Bradford method. […]
A MAO-B assay kit of Promega Corporation (Woods Hollow Road, Madison, Wis., USA) was used to determine MAO-B activity of ST and SN according to the manufacturer's instructions. […] Luminescence signals were measured using an Infinite M1000 multimode microplate reader (TECAN, Männedorf, Switzerland). MAO-B activity was expressed as relative light unit (RLU)/mg protein).

activity of MAO-B increased by MPTP [2]: could not reduce the activity of MAO-B
SMILES: C[C@@H]1O[C@@H](O[C@@H]2[C@@H](O)[C@H](O[C@@H]3[C@@H](O[C@@H]4OC[C@@H](O)[C@H](O)[C@H]4O)[C@@H](O)[C@H](O[C@H]4[C@H](OC(=O)[C@]56CCC(C)(C)C[C@H]5C5=CC[C@@H]7[C@@]8(C)C[C@H](O)[C@H](O[C@@H]9O[C@H](CO)[C@@H](O)[C@H](O[C@@H]%10OC[C@@H](O)[C@H](O)[C@H]%10O)[C@H]9O)[C@@](C)(CO)[C@@H]8CC[C@@]7(C)[C@]5(C)C[C@H]6O)OC[C@H](O)[C@@H]4O)O[C@H]3C)OC[C@H]2O)[C@H](O)[C@H](O)[C@H]1O [Compound 1, 3-O-β-D-xylopyranosyl-(1→3)-β-D-glucopyranosylpolygalacic acid 28-O-α-L-rhamnopyranosyl-(1→3)-β-D-xylopyranosyl-(1→4)-[β-D-xylopyranosyl-(1→3)]-α-L-rhamnopyranosyl-(1→2)-α-L-arabinopyranosyl ester]
LC3-II/LC3-I ratio ([1]; 24 hours, 5 μM, 10 μM and 20 μM): increase in the LC3-II/LC3-I ratio in a dose-dependent manner
LC3-II expression [1]: significantly increasing the expression
LC3-II expression ([1]; listed as astersaponin I): up-regulated LC3-II expression in a dose-dependent manner

Reference: patent US12234257B2, “Triterpene saponin derivative and use thereof” (KOREA INSTITUTE OF SCIENCE AND TECHNOLOGY, priority 2020, dated 2025)
